What was measured:
lipoamide = compound: NC(=O)CCCCC1CCSS1 [lipoamide]; test: thermal stability z-score vs DMSO; higher = more thermally stabilized by treatment; settings: HeLa, lipoamide concentration 100 µM
Experimental: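 Cellular thermal proteome profiling in HeLa cells. Cells were treated with 100 µM lipoamide for 1 h, with or without 1 mM arsenate for a further 1 h, then heated to ten temperatures (37-66.3 °C), and soluble protein was quantified by TMT mass spectrometry relative to 0.1% DMSO controls. The thermal stability score (sum of log2 fold changes minus the abundance score) was transformed to a z-score; mean of n = 3 experiments.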

potassium arsenate = compound: O=[As]([O-])(O)O.[K+] [potassium arsenate]; test: as above; settings: HeLa; arsenate concentration 1 mM
Experimental: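 Cellular thermal proteome profiling in HeLa cells treated with 1 mM arsenate for 1 h (DMSO pretreatment), heated to ten temperatures (37-66.3 °C). Soluble protein was quantified by TMT mass spectrometry relative to DMSO controls; the thermal stability score was transformed to a z-score; mean of n = 3 experiments.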

[1] = arsenate co-treatment: 1 mM arsenate 1 h
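Note: each temperature applied for 3 min, abundance score taken as mean log2 fold change at the two lowest temperatures, z-score obtained by mean subtraction and division by SD.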

Chain of UniProt P50238 (P50238 whole entry): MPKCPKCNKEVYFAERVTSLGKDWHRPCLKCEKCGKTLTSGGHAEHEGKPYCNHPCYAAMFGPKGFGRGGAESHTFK
Chain of UniProt P29373 (P29373 whole entry): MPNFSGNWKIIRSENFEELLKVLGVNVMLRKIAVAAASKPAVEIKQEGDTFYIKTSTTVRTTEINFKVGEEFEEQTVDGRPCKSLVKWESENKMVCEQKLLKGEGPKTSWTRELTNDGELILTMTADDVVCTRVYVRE
Chain of UniProt P41240 (P41240 whole entry, looked up): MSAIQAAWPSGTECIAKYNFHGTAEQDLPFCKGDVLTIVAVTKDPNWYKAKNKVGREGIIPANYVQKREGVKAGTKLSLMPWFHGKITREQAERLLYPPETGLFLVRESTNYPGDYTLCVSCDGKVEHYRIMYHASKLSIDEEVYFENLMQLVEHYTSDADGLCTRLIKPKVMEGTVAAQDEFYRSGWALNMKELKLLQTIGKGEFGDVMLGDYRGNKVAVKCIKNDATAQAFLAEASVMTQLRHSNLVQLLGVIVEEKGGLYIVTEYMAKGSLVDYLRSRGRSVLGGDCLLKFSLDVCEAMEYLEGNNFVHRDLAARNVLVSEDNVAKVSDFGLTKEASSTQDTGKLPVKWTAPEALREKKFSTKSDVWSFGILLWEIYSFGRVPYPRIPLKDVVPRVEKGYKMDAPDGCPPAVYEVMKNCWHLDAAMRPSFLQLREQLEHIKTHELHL
Chain of UniProt O75976 (O75976 whole entry): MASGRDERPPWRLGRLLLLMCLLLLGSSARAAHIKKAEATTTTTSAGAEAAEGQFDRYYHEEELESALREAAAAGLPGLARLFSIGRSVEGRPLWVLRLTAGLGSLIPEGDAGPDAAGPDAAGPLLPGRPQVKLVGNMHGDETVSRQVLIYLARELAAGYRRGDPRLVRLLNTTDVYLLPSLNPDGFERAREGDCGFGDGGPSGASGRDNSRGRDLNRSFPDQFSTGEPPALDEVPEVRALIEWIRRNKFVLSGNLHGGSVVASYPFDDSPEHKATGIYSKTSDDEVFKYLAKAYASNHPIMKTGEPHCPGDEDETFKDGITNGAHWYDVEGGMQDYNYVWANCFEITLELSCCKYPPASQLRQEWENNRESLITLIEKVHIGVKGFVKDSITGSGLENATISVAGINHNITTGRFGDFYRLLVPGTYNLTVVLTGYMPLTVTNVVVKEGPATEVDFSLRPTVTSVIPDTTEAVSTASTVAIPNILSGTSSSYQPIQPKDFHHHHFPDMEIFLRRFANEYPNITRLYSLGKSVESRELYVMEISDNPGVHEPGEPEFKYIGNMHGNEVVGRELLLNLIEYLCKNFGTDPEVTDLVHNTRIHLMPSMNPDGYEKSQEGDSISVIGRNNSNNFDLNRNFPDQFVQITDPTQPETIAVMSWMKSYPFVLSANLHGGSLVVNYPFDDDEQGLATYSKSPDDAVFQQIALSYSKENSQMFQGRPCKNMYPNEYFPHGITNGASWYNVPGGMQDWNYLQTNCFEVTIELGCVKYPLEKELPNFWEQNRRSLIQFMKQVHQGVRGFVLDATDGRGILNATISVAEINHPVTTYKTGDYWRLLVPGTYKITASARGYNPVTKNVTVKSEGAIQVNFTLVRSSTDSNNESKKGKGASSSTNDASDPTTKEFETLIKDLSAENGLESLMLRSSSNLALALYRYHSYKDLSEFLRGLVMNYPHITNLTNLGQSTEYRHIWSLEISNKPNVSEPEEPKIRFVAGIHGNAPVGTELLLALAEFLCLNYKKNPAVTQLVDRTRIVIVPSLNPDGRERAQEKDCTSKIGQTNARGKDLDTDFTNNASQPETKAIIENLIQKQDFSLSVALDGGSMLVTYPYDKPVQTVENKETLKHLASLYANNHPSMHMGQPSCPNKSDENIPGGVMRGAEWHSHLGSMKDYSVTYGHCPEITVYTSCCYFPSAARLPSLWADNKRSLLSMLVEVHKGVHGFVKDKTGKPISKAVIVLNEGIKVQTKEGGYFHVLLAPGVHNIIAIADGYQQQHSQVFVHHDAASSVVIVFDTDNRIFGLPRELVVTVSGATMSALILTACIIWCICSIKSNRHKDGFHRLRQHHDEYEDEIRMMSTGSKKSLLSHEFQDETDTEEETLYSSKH
Chain of UniProt P32929 (P32929 whole entry): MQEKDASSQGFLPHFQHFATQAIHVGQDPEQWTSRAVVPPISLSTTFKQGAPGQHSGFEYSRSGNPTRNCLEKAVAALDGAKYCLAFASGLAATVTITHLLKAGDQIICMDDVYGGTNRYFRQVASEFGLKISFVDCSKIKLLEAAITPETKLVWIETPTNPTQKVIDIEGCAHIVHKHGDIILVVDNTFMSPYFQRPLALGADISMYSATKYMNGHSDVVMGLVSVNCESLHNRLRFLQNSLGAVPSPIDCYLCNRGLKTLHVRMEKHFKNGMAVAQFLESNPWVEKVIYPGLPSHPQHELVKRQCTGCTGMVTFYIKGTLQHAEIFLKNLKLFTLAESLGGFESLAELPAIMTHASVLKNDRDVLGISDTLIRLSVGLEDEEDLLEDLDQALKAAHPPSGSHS
Chain of UniProt P19784 (P19784 whole entry, looked up): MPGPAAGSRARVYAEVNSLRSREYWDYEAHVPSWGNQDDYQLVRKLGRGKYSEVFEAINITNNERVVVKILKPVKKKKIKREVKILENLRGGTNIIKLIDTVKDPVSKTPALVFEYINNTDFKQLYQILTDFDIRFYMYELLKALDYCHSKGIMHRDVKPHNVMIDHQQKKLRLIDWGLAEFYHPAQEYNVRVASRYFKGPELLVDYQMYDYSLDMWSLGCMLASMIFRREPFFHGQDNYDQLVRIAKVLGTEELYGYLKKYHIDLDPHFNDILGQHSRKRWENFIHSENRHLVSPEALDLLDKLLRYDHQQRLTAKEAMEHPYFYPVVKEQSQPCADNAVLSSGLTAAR
Chain of UniProt Q86YQ8 (Q86YQ8 whole entry): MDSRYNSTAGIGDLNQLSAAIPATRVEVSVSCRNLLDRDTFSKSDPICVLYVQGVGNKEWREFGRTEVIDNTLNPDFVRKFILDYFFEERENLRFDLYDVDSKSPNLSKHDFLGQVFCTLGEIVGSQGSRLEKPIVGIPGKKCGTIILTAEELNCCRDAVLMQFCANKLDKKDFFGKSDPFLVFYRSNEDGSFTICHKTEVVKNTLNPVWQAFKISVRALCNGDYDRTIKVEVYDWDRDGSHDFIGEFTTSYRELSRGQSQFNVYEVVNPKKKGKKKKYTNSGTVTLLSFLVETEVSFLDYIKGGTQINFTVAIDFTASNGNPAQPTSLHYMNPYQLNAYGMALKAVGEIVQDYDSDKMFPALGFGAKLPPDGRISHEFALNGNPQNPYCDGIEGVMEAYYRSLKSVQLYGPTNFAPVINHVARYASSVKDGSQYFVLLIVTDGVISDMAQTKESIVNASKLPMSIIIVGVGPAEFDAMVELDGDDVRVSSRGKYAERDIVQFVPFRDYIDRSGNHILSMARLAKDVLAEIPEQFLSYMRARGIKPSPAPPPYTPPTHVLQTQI
Chain of UniProt Q9H0L4 (Q9H0L4 whole entry): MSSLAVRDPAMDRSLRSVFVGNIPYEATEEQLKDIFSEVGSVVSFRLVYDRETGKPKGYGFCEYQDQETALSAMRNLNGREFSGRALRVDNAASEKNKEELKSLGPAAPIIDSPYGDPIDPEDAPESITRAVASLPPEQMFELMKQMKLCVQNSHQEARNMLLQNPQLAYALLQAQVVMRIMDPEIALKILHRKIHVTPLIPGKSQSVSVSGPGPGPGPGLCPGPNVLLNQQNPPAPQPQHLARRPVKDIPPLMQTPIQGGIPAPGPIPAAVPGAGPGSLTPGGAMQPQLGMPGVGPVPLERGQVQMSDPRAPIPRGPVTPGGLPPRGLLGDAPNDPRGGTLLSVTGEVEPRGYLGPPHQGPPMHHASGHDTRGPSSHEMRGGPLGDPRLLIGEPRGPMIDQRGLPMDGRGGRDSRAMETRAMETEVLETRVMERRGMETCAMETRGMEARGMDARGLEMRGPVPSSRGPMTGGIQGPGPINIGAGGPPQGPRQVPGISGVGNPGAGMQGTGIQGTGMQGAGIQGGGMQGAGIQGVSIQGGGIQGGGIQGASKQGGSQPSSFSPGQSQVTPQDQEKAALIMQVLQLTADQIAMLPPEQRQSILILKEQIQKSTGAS
Chain of UniProt O75718 (O75718 whole entry): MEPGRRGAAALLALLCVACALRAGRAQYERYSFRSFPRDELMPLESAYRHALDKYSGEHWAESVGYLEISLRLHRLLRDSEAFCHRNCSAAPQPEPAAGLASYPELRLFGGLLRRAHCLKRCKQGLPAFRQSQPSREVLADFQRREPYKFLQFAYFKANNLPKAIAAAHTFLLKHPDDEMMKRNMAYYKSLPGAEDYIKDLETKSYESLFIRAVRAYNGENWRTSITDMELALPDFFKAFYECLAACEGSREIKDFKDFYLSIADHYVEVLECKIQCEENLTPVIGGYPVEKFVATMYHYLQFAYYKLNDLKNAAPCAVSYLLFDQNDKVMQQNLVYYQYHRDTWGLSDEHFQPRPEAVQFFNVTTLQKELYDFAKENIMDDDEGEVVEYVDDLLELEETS
Chain of UniProt Q5RI15 (Q5RI15 whole entry): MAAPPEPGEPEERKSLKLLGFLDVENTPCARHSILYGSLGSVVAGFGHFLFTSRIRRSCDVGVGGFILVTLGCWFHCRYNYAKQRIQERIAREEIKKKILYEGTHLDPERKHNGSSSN
Chain of UniProt P04080 (P04080 whole entry): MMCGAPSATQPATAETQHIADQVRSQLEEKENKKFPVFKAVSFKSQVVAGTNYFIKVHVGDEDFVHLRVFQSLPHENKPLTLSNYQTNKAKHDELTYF
Chain of UniProt P01034 (P01034 whole entry): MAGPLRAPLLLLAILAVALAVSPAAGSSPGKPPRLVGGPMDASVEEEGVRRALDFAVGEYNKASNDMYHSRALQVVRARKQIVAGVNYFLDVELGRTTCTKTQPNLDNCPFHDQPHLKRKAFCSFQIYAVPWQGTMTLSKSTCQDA
Chain of UniProt O14810 (O14810 whole entry): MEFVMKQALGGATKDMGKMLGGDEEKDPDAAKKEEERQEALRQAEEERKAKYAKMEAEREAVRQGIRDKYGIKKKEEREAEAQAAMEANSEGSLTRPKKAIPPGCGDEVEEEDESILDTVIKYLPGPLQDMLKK

Row | Target | thermal stability z-score (lipoamide; [1]) | thermal stability z-score (lipoamide; arsenate co-treatment: none) | thermal stability z-score (potassium arsenate)
1 | COX20 (UniProt Q5RI15) | -0.11 | -0.155 | -0.19
2 | CPA4 (UniProt Q9UI42) | -0.883 | -0.642 | 0.188
3 | CPD (UniProt O75976) | -0.796 | -0.794 | 0.546
4 | CPLX1 (UniProt O14810) | 0.844 | 1.45 | -0.346
5 | CPM (UniProt P14384) | 0.0529 | -0.163 | 0.405
6 | CPNE1 (UniProt Q99829) | 0.0896 | 0.0907 | -0.934
7 | CPNE3 (UniProt O75131) | 1.73 | 2.22 | 0.283
8 | CPNE8 (UniProt Q86YQ8) | 0.773 | 1.11 | -0.648
9 | CPOX (UniProt P36551) | 0.526 | -0.338 | -0.525
10 | CPPED1 (UniProt Q9BRF8) | -0.0195 | 0.348 | 0.792
11 | CPS1 (UniProt P31327) | -0.756 | 0.095 | -1.39
12 | CPSF1 (UniProt Q10570) | 0.324 | 0.168 | -0.123
13 | CPSF2 (UniProt Q9P2I0) | -0.00974 | -0.136 | -0.339
14 | CPSF3 (UniProt Q9UKF6) | 0.15 | -0.0907 | -0.0903
15 | CPSF3L (UniProt Q5TA45) | 0.622 | 0.702 | 0.178
16 | CPSF6 (UniProt Q16630) | 0.848 | 1.21 | 0.452
17 | CPSF7 (UniProt Q8N684) | 0.18 | 0.191 | -0.36
18 | CPT1A (UniProt P50416) | -0.189 | -0.268 | -0.161
19 | CPT2 (UniProt P23786) | -0.296 | 0.0116 | 0.228
20 | CPTP (UniProt Q5TA50) | 2.01 | 0.706 | 1.5
21 | CRABP2 (UniProt P29373) | 0.359 | 1.24 | 0.378
22 | CRAT (UniProt P43155) | 0.0164 | 0.114 | 0.0734
23 | CRBN (UniProt Q96SW2) | 0.304 | -0.141 | -0.0801
24 | CREBBP (UniProt Q92793) | 0.397 | -0.0649 | -0.693

Row | Target | thermal stability z-score (lipoamide; [1]) | thermal stability z-score (lipoamide; arsenate co-treatment: none) | thermal stability z-score (potassium arsenate)
25 | CRELD1 (UniProt Q96HD1) | -0.249 | -0.193 | -0.113
26 | CRELD2 (UniProt Q6UXH1) | -6.65 | -6.33 | -0.0409
27 | CRIM1 (UniProt Q9NZV1) | -2.84 | -1.95 | -2.04
28 | CRIP1 (UniProt P50238) | 1.49 | 1.68 | 1.18
29 | CRIP2 (UniProt P52943) | -0.0467 | 0.146 | -0.637
30 | CRK (UniProt P46108) | 0.951 | 0.233 | 1.2
31 | CRKL (UniProt P46109) | 0.0621 | 0.384 | 0.656
32 | CRLF3 (UniProt Q8IUI8) | -0.236 | -0.971 | 0.0579
33 | CRNKL1 (UniProt Q9BZJ0) | 0.288 | 0.156 | -0.00401
34 | CRTAP (UniProt O75718) | -3.99 | -3.27 | 0.92
35 | CRTC1 (UniProt Q6UUV9) | -0.063 | -0.202 | -0.151
36 | CRTC3 (UniProt Q6UUV7) | -0.316 | -0.025 | 0.1
37 | CRYBG3 (UniProt Q68DQ2) | -0.828 | 0.00468 | -0.00726
38 | CRYZ (UniProt Q08257) | 0.232 | 0.229 | 0.207
39 | CRYZL1 (UniProt O95825) | -0.0756 | -0.692 | -0.358
40 | CS (UniProt O75390) | -0.341 | 0.0055 | 0.561
41 | CSDE1 (UniProt O75534) | -0.138 | 0.281 | -0.273
42 | CSE1L (UniProt P55060) | 0.582 | 0.825 | 0.016
43 | CSF2RA (UniProt P15509) | 0.513 | 0.365 | 0.19
44 | CSK (UniProt P41240) | 0.116 | 0.433 | -0.218
45 | CSNK1A1 (UniProt P48729) | -0.534 | -0.478 | 1.08
46 | CSNK1E (UniProt P49674) | 0.18 | -0.0385 | -0.184
47 | CSNK2A1 (UniProt P68400) | 0.541 | 0.00111 | 0.489
48 | CSNK2A2 (UniProt P19784) | 0.339 | 0.183 | 0.00534

Row | Target | thermal stability z-score (lipoamide; [1]) | thermal stability z-score (lipoamide; arsenate co-treatment: none) | thermal stability z-score (potassium arsenate)
49 | CSNK2B (UniProt P67870) | 1.66 | 1.48 | 0.656
50 | CSPG4 (UniProt Q6UVK1) | -0.203 | -0.907 | -0.945
51 | CSRP1 (UniProt P21291) | 0.858 | 0.655 | 0.517
52 | CSRP2 (UniProt Q16527) | 0.688 | 0.0492 | -0.0511
53 | CST3 (UniProt P01034) | -0.744 | -0.0182 | 0.472
54 | CSTB (UniProt P04080) | 0.399 | 0.0839 | 0.59
55 | CSTF1 (UniProt Q05048) | -0.533 | 0.0516 | -1.45
56 | CSTF2 (UniProt P33240) | 1.09 | 0.979 | 0.756
57 | CSTF2T (UniProt Q9H0L4) | 0.0672 | -0.0883 | 0.141
58 | CSTF3 (UniProt Q12996) | 0.159 | 0.0381 | -0.661
59 | CTAG2 (UniProt O75638) | -0.394 | 0.0387 | 0.617
60 | CTBP1 (UniProt Q13363) | 1.13 | -0.19 | 0.629
61 | CTBP2 (UniProt P56545) | 0.985 | -0.0596 | 0.448
62 | CTCF (UniProt P49711) | 0.761 | -0.0166 | -1.14
63 | CTDP1 (UniProt Q9Y5B0) | -0.373 | -0.652 | -0.903
64 | CTH (UniProt P32929) | 0.473 | 0.559 | 0.596
65 | CTIF (UniProt O43310) | -0.164 | 0.404 | 0.233
66 | CTNNA1 (UniProt P35221) | 0.319 | 0.2 | -0.4
67 | CTNNAL1 (UniProt Q9UBT7) | 0.0967 | 0.168 | 0.675
68 | CTNNB1 (UniProt P35222) | 0.545 | 0.798 | 0.308
69 | CTNNBL1 (UniProt Q8WYA6) | -0.0207 | 0.00313 | -0.00699
70 | CTNND1 (UniProt O60716) | 0.292 | 0.231 | -0.105
71 | CTPS1 (UniProt P17812) | -0.159 | -0.286 | -0.228

Reference: the supplement of paper PMC12463676, “Small-molecule dissolution of stress granules by redox modulation benefits ALS models” (Nature Chemical Biology, 2025)
